Reference: US6387849B1, “Herbicidal hydroximic acid derivatives” (BASF Aktiengesellschaft, priority 1997, dated 2002)

melting point: 122 to 124 °C
Structure (SMILES): CO/N=C(\OC)c1cc(-n2c(=O)cc(C(F)(F)F)n(C)c2=O)c(F)cc1Cl [Compound 4.01, 3-[2-fluoro-4-chloro-5-methoxyimino-(methoxy)methylphenyl]-2,4-dioxo-1-methyl-6-trifluoromethyl-1,2,3,4-tetrahydropyrimidine]
